From ChEMBL document CHEMBL5532675, “Discovery of 4-Ethoxy-6-chloro-5-azaindazoles as Novel PDE4 Inhibitors for the Treatment of Alcohol Use Disorder and Alcoholic Liver Diseases” (J Med Chem, 2024)
Activity calls are given as the source filed them. The calls are words filed in the database; no cut-off is given here.

Experiments:
[1] = biological target: High affinity cGMP-specific 3',5'-cyclic phosphodiesterase 9A (Homo sapiens) (UniProt O76083); test: Inhibition of PDE9A (unknown origin) using FAM-cyclic-3',5'-AMP as substrate at 10 uM incubated for 1 hrs by fluorescence polarization based IMAP assay relative to control
Chain of High affinity cGMP-specific 3',5'-cyclic phosphodiesterase 9A (Homo sapiens) (O76083 whole entry): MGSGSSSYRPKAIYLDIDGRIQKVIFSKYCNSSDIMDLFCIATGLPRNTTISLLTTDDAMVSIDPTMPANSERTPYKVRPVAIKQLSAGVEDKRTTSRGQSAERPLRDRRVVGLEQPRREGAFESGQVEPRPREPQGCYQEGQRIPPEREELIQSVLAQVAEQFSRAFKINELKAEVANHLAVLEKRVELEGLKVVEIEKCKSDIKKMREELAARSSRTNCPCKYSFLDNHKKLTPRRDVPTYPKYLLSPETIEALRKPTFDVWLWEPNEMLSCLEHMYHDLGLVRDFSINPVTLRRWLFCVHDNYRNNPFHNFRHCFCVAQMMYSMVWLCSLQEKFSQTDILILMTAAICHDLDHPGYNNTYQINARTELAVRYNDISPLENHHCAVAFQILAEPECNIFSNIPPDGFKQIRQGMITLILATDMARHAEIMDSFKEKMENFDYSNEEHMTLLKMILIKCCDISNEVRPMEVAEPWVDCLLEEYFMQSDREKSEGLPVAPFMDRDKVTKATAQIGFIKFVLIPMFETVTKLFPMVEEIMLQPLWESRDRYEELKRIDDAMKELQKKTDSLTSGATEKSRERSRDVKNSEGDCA

Mus musculus [2] = test: (§1) Protection against alcohol-induced motor impairment in C57BL/6J mouse model assessed as short recovery time by measuring latency to falling off at 2.5 mg/kg, po preadministered with compound every 24 hrs for 3 times followed by alcohol administration 30 mins post last dose and further treated with compound for 3 days followed by alcohol administration 30 mins post last dose and measured at 2 to 20 mins by rotarod test; assay type: functional, organism-based; settings: time 8702-8720 min
Mus musculus [3] = test: (§2) Protection against alcoholic liver disease in NIAAA C57BL/6J mouse model assessed as improvement of liver injury at 1 to 2.5 mg/kg, po preadministered with 1 to 4 % of alcohol for 10 days with subsequent compound addition from day 6 to 11 and further administered with 31.25 % alcohol on day 11 and measured after 9 hrs by H&E staining based light microscopic analysis; assay type: functional, organism-based; settings: dose 1-2.5 mg/kg, time 5.0 day
[4] = Half-life in Sprague-Dawley rat at 10 mg/kg, po measured after 24 hrs by LC-MS analysis; assay type: ADME, organism-based; settings: in vivo
[5] = Cmax in Sprague-Dawley rat at 10 mg/kg, po measured after 24 hrs by LC-MS analysis; assay type: ADME, organism-based; settings: in vivo
[6] = Selectivity ratio for inhibition of PDE3B (unknown origin) using FAM-cyclic-3',5'-AMP as substrate to inhibition of PDE4B1 (unknown origin) using FAM-cyclic-3',5'-AMP as substrate
[7] = biological target: High affinity cAMP-specific and IBMX-insensitive 3',5'-cyclic phosphodiesterase 8A (Homo sapiens) (UniProt O60658); test: Inhibition of PDE8A1 (unknown origin) using FAM-cyclic-3',5'-AMP as substrate at 10 uM incubated for 1 hrs by fluorescence polarization based IMAP assay relative to control
Chain of High affinity cAMP-specific and IBMX-insensitive 3',5'-cyclic phosphodiesterase 8A (Homo sapiens) (O60658 whole entry): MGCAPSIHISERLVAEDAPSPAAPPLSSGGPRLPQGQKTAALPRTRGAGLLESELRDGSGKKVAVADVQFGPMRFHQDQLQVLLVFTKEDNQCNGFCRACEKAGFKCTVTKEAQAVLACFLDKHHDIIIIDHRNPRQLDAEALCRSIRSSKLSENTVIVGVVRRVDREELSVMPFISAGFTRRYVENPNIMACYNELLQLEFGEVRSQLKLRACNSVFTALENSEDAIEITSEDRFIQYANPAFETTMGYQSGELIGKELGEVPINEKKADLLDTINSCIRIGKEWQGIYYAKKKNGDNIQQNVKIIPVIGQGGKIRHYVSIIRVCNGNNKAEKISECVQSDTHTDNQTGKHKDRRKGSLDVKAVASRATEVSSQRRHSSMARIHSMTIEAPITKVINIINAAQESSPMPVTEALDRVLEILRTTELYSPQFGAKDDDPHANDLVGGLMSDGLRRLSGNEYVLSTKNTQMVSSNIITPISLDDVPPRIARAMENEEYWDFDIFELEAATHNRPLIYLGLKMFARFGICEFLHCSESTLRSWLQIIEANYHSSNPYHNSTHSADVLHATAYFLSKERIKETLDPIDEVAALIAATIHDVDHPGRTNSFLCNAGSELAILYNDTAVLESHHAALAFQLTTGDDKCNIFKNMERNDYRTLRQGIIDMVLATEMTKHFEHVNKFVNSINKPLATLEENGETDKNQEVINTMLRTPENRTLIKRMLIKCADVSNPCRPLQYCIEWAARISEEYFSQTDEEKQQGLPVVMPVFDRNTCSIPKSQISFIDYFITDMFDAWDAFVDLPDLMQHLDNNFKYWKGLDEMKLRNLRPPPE

[8] = Selectivity ratio for inhibition of PDE7A (unknown origin) using FAM-cyclic-3',5'-AMP as substrate to inhibition of PDE4B1 (unknown origin) using FAM-cyclic-3',5'-AMP as substrate
HT-22 = test: Cytotoxicity against mouse HT-22 cells assessed as reduction in cell viability incubated for 48 hrs by MTT assay; assay type: toxicity, cell-based; settings: ht-22, 48 h
[9] = Selectivity ratio for inhibition of PDE8A1 (unknown origin) using FAM-cyclic-3',5'-AMP as substrate to inhibition of PDE4D7 (unknown origin) using FAM-cyclic-3',5'-AMP as substrate
[10] = Selectivity ratio for inhibition of PDE7A (unknown origin) using FAM-cyclic-3',5'-AMP as substrate to inhibition of PDE4D7 (unknown origin) using FAM-cyclic-3',5'-AMP as substrate
[11] = AUC (0 to infinity) in Sprague-Dawley rat at 10 mg/kg, po measured after 24 hrs by LC-MS analysis; assay type: ADME, organism-based; settings: in vivo
Mus musculus [12] = test: as §2, with “decrease in serum AST level” for “improvement of liver injury”, “absorbance” for “H&E staining”, “plate analyzer” for “light microscopic analysis”; assay type: functional, organism-based; settings: dose 1-2.5 mg/kg, time 5.0 day
Mus musculus [13] = test: as §2, with “decrease in” for “improvement of”, “index” for “injury”, “at” for “at 1 to”, “hrs” for “hrs by H&E staining based light microscopic analysis”; assay type: functional, organism-based; settings: time 5.0 day
[14] = Selectivity ratio for inhibition of PDE9A (unknown origin) using FAM-cyclic-3',5'-AMP as substrate to inhibition of PDE4B1 (unknown origin) using FAM-cyclic-3',5'-AMP as substrate
Mus musculus [15] = test: as §2, with “reduction in serum IL1-beta level” for “improvement of liver injury”, “ELISA” for “H&E staining based light microscopic analysis”; assay type: functional, organism-based; settings: dose 1-2.5 mg/kg, time 5.0 day
[16] = Volume of distribution at steady state in Sprague-Dawley rat at 2 mg/kg, iv measured after 24 hrs by LC-MS analysis; assay type: ADME, organism-based; settings: in vivo, read-out: Vdss
[17] = Drug concentration in Sprague-Dawley rat brain at 10 mg/kg, po administered as single dose for 2 hrs by LC-MS analysis; assay type: ADME, organism-based; settings: read-out: Ct
Mus musculus [18] = test: as §1, with “as” for “as short”, “of average speed at 1” for “time by measuring latency”, “to” for “to falling off at”, “open field” for “rotarod”; assay type: functional, organism-based; settings: dose 1-2.5 mg/kg, time 8702-8720 min
[19] = AUC (0 to t) in Sprague-Dawley rat at 2 mg/kg, iv measured after 24 hrs by LC-MS analysis; assay type: ADME, organism-based; settings: in vivo
[20] = Oral bioavailability in Sprague-Dawley rat at 10 mg/kg measured after 24 hrs by LC-MS analysis; assay type: ADME, organism-based; settings: in vivo
Mus musculus [21] = test: as §2, with “Oil Red O” for “H&E”; assay type: functional, organism-based; settings: dose 1-2.5 mg/kg, time 5.0 day
[22] = Drug concentration in Sprague-Dawley rat liver at 10 mg/kg, po administered as single dose for 2 hrs by LC-MS analysis; assay type: ADME, organism-based; settings: read-out: Ct
[23] = Cmax in Sprague-Dawley rat at 2 mg/kg, iv measured after 24 hrs by LC-MS analysis; assay type: ADME, organism-based; settings: in vivo
Mus musculus [24] = test: Protection against alcohol use disorder in C57BL/6J mouse model assessed as decrease in alcohol preference at 1 to 2.5 mg/kg, po pre-trained with alcohol and water for 42 days with subsequent compound addition on day 22 and measured after 3 weeks by two-bottle choice test; assay type: functional, organism-based; settings: dose 1-2.5 mg/kg
[25] = Half-life in Sprague-Dawley rat at 2 mg/kg, iv measured after 24 hrs by LC-MS analysis; assay type: ADME, organism-based; settings: in vivo
Mus musculus [26] = test: Protection against alcohol-induced sedation in C57BL/6J mouse model assessed as reduction in sleep time at 1 to 2.5 mg/kg, po preadministered with compound every 24 hrs for 3 times followed by alcohol administration 30 mins post last dose; assay type: functional, organism-based; settings: dose 1-2.5 mg/kg, time 72.5 hrs
[27] = Clearance in Sprague-Dawley rat at 2 mg/kg, iv measured after 24 hrs by LC-MS analysis; assay type: ADME, organism-based; settings: in vivo
SH-SY5Y = test: Protection against alcohol-induced cytotoxicity in human SH-SY5Y cells assessed as increase in cell viability at 0.25 to 1 uM preincubated with compound for 1 hrs followed by ethanol administration and measured after 24 hrs by CCK8 assay; assay type: functional, cell-based; settings: dose 0.25-1 µM, time 25.0 hrs
Mus musculus [28] = test: Protection against alcohol exposure-induced anxiety like behavior in C57BL/6J mouse model assessed as increase in center time at 1 to 2.5 mg/kg, po pre-trained with alcohol and water for 42 days with subsequent compound addition from day 22 to day 42 followed by 3.5 hrs of darkness and compound administration for 30 mins followed by water replacement with alcohol for 4 hrs and measured 24 hrs after alcohol withdrawal by open field test; assay type: functional, organism-based; settings: dose 1-2.5 mg/kg
Mus musculus [29] = test: as §2, with “decrease in serum ALT level” for “improvement of liver injury”, “absorbance” for “H&E staining”, “plate analyzer” for “light microscopic analysis”; assay type: functional, organism-based; settings: dose 1-2.5 mg/kg, time 5.0 day
Mus musculus [30] = test: as §1, with “decrease in resting” for “short recovery”, “at 1” for “by measuring latency”, “to” for “to falling off at”, “open field” for “rotarod”; assay type: functional, organism-based; settings: dose 1-2.5 mg/kg, time 8702-8720 min

For `CCOc1nc(Cl)cc2c1cnn2CCCC(=O)O`, which inhibition [1] is on record?
The inhibition was 9%.

What about the Activity (Mus musculus [2]) of the same compound?
Its Activity is “Active”.

And the Activity (Mus musculus [3])?
Its Activity is “Active”.

What about the half-life [4] of the same compound?
The half-life was 9.3 h.

And the Cmax [5]?
Its Cmax is 43300 ng/mL.

And the Selectivity ratio [6]?
Its Selectivity ratio is over 267.

What about the inhibition [7] of the same compound?
The inhibition was 9%.

And the Selectivity ratio [8]?
The Selectivity ratio was over 267.

And the Activity (HT-22)?
The Activity was “Non-Toxic”.

What about the Selectivity ratio [9] of the same compound?
Its Selectivity ratio is over 267.

What about the Selectivity ratio [10] of the same compound?
Its Selectivity ratio is over 267.

And the AUC(0-inf) [11]?
Its AUC(0-inf) is 828 µg·h/mL.

And the Activity (Mus musculus [12])?
Its Activity is “Active”.

And the Activity (Mus musculus [13])?
The Activity was “Active”.

What about the Selectivity ratio [14] of the same compound?
Its Selectivity ratio is over 267.

What about the Activity (Mus musculus [15]) of the same compound?
The Activity was “Active”.

And the Vd [16]?
The Vd was 0.0719 L/kg.

What about the concentration at 2 h [17] of the same compound?
The concentration at 2 h was 441 ng/g.

What about the Activity (Mus musculus [18]) of the same compound?
Its Activity is “Active”.

What about the AUC(0-t) at 24 h [19] of the same compound?
The AUC(0-t) at 24 h was 142 µg·h/mL.

What about the bioavailability [20] of the same compound?
Its bioavailability is 94.1%.

And the Activity (Mus musculus [21])?
Its Activity is “Active”.

What about the concentration at 2 h [22] of the same compound?
The concentration at 2 h was 8120 ng/g.

And the Cmax [23]?
The Cmax was 23200 ng/mL.

What about the Activity (Mus musculus [24]) of the same compound?
Its Activity is “Active”.

And the half-life [25]?
The half-life was 3.65 h.

What about the Activity (Mus musculus [26]) of the same compound?
Its Activity is “Active”.

What about the clearance [27] of the same compound?
The clearance was 0.211 mL/min/kg.

And the Activity (SH-SY5Y)?
Its Activity is “Active”.

And the Activity (Mus musculus [28])?
The Activity was “Active”.

What about the Activity (Mus musculus [29]) of the same compound?
The Activity was “Active”.

And the Activity (Mus musculus [30])?
The Activity was “Active”.
